Laboratory results from article PMC11189555, “Aryl amino acetamides prevent Plasmodium falciparum ring development via targeting the lipid-transfer protein PfSTART1” (Nature Communications, 2024).
Where “and” joins values, the source holds several entries; their conditions need not be identical. Equal values may be shown once.

Key:
[1] = biological target: T1, recombinant PfSTART1(WT) (I149-V394) (Plasmodium falciparum, UniProt Q8I298); assay: Isothermal titration calorimetry; assay type: binding; conditions: for Differential Power DP_Y / ΔH NDH_Y: PfSTART(WT), ITC replicate data
T1 construct: START domain alone (I149-V394 from PF3D7_0104200); 8xHis tag (N); TEV protease cleavage site (N); made in house; host or cells: Sf21 insect cells (baculovirus)
Text: Codon optimised (Spodoptera frugiperda, Sf) START domain alone (I149-V394 from PF3D7_0104200) was synthesised by Integrated DNA Technologies and cloned into a modified baculovirus transfer vector (pAcGP67-A) with a N-terminal GP67-signal sequence, 8xHis tag, and TEV protease cleavage site. Recombinant baculovirus was generated via the flashBACTM Baculovirus Expression System using Sf21 cells (Life Technologies), amplified to reach a third passage viral stock, and 1.5% used to infect Sf21 for protein expression. After incubation for three days at 28 °C, media containing secreted protein was harvested by centrifugation and supplemented with 50 mM Tris pH 7.5, 20 mM MgCl2, 100 mM NaCl, and 10-20 mM imidazole. The supplemented protein sample was purified by nickel affinity chromatography (HisTrap Excel 5 mL, Cytiva), and eluted with 20 mM Tris pH 7.5, 500 mM NaCl, 300-500 mM imidazole. Eluted fractions were further purified using size-exclusion chromatography (Superdex S75 16/600 or Superdex 10/300, Cytiva) with the column pre-equilibrated with 20 mM HEPES pH 7.5, 150 mM NaCl, and peak-containing fractions concentrated and stored at -80 °C until required. If required, prior to ITC, a second size-exclusion chromatography step was performed to remove soluble aggregates.
ITC experiments were performed on a MicroCal PEAQ-ITC calorimeter at 25 °C, with a stirring speed of 750 rpm and a reference power of 5 μcal/sec. 500 μM M-833 series inhibitor solutions were diluted to 10 μM in 50 mM NaPO4^-3 (pH 7.4), 150 mM NaCl with a final DMSO concentration of 2% (v/v) (cell sample). PfSTART1 protein was dialysed extensively against 50 mM NaPO4^-3 (pH 7.4), 150 mM NaCl, before diluting to 90 μM in the same buffer with 2% (v/v) DMSO (syringe sample). The first injection was 0.4 μL over a 0.8 s duration, and the remaining 19 injections were 2 μL of 4 s duration, with 150 s injection spacing. Data were collected and analysed using the PEAQ-ITC software (MicroCal) and fit by a single site binding model. A fitted offset (constant control heat) was also applied to the integrated heat.

in vitro = conditions: human
[2] = tested on: 3D7 P. falciparum parasites; assay: Growth inhibition assay (72 h, LDH activity); assay type: cell-based, Plasmodium falciparum; conditions: for NORMALISED (growth inhibition, LDH absorbance vs DMSO and uRBC): 3D7, 0 mM GlcN; for NORMALISED (growth inhibition, LDH absorbance) / (av-uRBC) / (DMSO-uRBC) x100: 3D7
Protocol: Parasite growth assays with inhibitory compounds were performed as per[11] and are fully described in the Supplementary Information. […]
Growth inhibition assays. Synchronised ring-stage parasites (0.3-0.6% parasitemia, 2% haematocrit) were grown for 72 h in a serial-dilution of the compound under […]
and compound 4. Note that M-833 was first purchased from MolPort (MolPort -002-267-916) then made in-house at WEHI: the differences observed in EC50s across experiments are attributed to the different batches of M -833. For some experiments, 0, 0.25 or 2.5 mM of glucosamine (GlcN) was also added. Experiments were set up in technical duplicates or triplicates. Following a freeze -thaw cycle, lactate dehydrogenase (LDH) activity was assessed as an indicator of parasite growt h 5. 30 μL of parasite culture was incubated for 30 min in the dark with 75 μL Malstat mixture (0.1 M Tris pH 9.0, 20 g/L lactic acid, pH 7.5, 0.2% Triton-X100, 0.5 g/L acetylpyridine adenine dinucleotide (APAD, Sigma), 200 μg/mL nitroblue tetrazolium (NBT; Sigma), 1 μg/mL phenozine ethosulfate (PES; Sigma)). Absorbance was then measured at 650 nm, transformed using the formula below, plotted against the logarithm of the concentrations, and a non-linear regression (log(inhibitor) vs. response, variable slope) was calculated using GraphPad Prism to assess the half-inhibitory […]
Growth inhibition % = (1 − average(sample)− average(uRBC)) ∗ 100 […]
The DMSO samples were also used to assess growth of parasite in the presence of 0.25 and 2.5 mM GlcN (normalised by DMSO in 0 mM GlcN). […]

T1 sequence (Q8I298 entry or part of it): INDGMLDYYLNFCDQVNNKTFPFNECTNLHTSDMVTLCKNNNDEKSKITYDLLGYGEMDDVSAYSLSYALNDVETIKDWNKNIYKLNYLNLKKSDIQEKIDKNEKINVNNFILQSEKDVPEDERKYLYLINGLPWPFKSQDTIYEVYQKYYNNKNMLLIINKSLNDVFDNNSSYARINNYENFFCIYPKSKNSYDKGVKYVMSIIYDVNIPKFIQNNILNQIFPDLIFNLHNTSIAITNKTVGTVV

Compound: CC(C)(Nc1ccc(Cl)c(S(=O)(=O)N2CCOCC2)c1)C(=O)Nc1ccc(F)c(Cl)c1 [W-991]
- Kd ([1]; ITC, 25 °C, 90 µM PfSTART1 titrated into 10 µM compound, n = 2, ± SD): 0.01 ± 0.007 µM
- ΔH ([1]; ITC, 25 °C, n = 2, ± SD): -12.8 ± 0.1 kcal/mol
- −TΔS ([1]; ITC, 25 °C, n = 2, ± SD): 1.8 ± 0.6 kcal/mol
- Differential Power DP_Y ([1]; DP_X 0.083333): -0.000146
- Differential Power DP_Y ([1]; DP_X 0.1): 9.8e-5
- ΔH NDH_Y ([1]; NDH_X 0.104703): -13.8427
- ΔH NDH_Y ([1]; NDH_X 0.192876): -12.6755
- CC50 (in vitro): 29 µM
- NORMALISED (growth inhibition, LDH absorbance vs DMSO and uRBC) ([2]; W991 at 0.137174 nM): 9.0099 and 4.6722
- NORMALISED (growth inhibition, LDH absorbance vs DMSO and uRBC) ([2]; W991 at 0.411523 nM): 30.495 and 19.7030
- NORMALISED (growth inhibition, LDH absorbance vs DMSO and uRBC) ([2]; W991 at 1.23457 nM): 67.3267 and 60.8717
- NORMALISED (growth inhibition, LDH absorbance vs DMSO and uRBC) ([2]; W991 at 3.7037 nM): 88.9109 and 93.8187
- NORMALISED (growth inhibition, LDH absorbance vs DMSO and uRBC) ([2]; W991 at 11.1111 nM): 90.3465 and 96.7162
- NORMALISED (growth inhibition, LDH absorbance vs DMSO and uRBC) ([2]; W991 at 33.3333 nM): 89.8515 and 96.9697
- NORMALISED (growth inhibition, LDH absorbance vs DMSO and uRBC) ([2]; W991 at 100 nM): 92.3267 and 97.2232
- NORMALISED (growth inhibition, LDH absorbance) ([2]; 0.25 mM GlcN, dilution point 1 of 10, starting concentration 100 nM): 97.1868
- NORMALISED (growth inhibition, LDH absorbance) ([2]; 0.25 mM GlcN, dilution point 2 of 10 from starting concentration 100 nM): 96.6100
- NORMALISED (growth inhibition, LDH absorbance) ([2]; 0.25 mM GlcN, dilution point 3 of 10 from starting concentration 100 nM): 96.4481
- NORMALISED (growth inhibition, LDH absorbance) ([2]; 0.25 mM GlcN, dilution point 4 of 10 from starting concentration 100 nM): 92.3801
- NORMALISED (growth inhibition, LDH absorbance) ([2]; 0.25 mM GlcN, dilution point 5 of 10 from starting concentration 100 nM): 74.4235 and 44.8087
- NORMALISED (growth inhibition, LDH absorbance) ([2]; 2.5 mM GlcN, dilution point 1 of 10, starting concentration 100 nM): 96.9212
- NORMALISED (growth inhibition, LDH absorbance) ([2]; 2.5 mM GlcN, dilution point 2 of 10 from starting concentration 100 nM): 96.2021
- NORMALISED (growth inhibition, LDH absorbance) ([2]; 2.5 mM GlcN, dilution point 3 of 10 from starting concentration 100 nM): 95.7667
- NORMALISED (growth inhibition, LDH absorbance) ([2]; 2.5 mM GlcN, dilution point 4 of 10 from starting concentration 100 nM): 92.5258
- NORMALISED (growth inhibition, LDH absorbance) ([2]; 2.5 mM GlcN, dilution point 5 of 10 from starting concentration 100 nM): 58.1932
- NORMALISED (growth inhibition, LDH absorbance) ([2]; 2.5 mM GlcN, dilution point 6 of 10 from starting concentration 100 nM): 27.2129
- NORMALISED (growth inhibition, LDH absorbance) ([2]; 2.5 mM GlcN, dilution point 8 of 10 from starting concentration 100 nM): 5.32 and 8.1730
- (av-uRBC) / (DMSO-uRBC) x100 ([2]; conc. 0.0762079 nM, Biological replicate 1 (2021-10-25)): 91.3585
- (av-uRBC) / (DMSO-uRBC) x100 ([2]; conc. 0.0762079 nM, Biological replicate 2 (2021-11-03)): 90.9909
- (av-uRBC) / (DMSO-uRBC) x100 ([2]; conc. 0.0762079 nM, Biological replicate 3 (2021-11-11)): 91.0985
- (av-uRBC) / (DMSO-uRBC) x100 ([2]; conc. 0.228624 nM, Biological replicate 1 (2021-10-25)): 79.3619
- (av-uRBC) / (DMSO-uRBC) x100 ([2]; conc. 0.228624 nM, Biological replicate 2 (2021-11-03)): 81.2617
- (av-uRBC) / (DMSO-uRBC) x100 ([2]; conc. 0.228624 nM, Biological replicate 3 (2021-11-11)): 73.154
- (av-uRBC) / (DMSO-uRBC) x100 ([2]; conc. 0.685871 nM, Biological replicate 1 (2021-10-25)): 42.85
- (av-uRBC) / (DMSO-uRBC) x100 ([2]; conc. 0.685871 nM, Biological replicate 2 (2021-11-03)): 72.8867
